PubChem BioAssay (NCI)
“And” between values parts separate entries of the source, which are not always exact repeats. Equal entries are not always repeated.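 Assay format: 96-well plates, 48-hour exposure. GI50: concentration for 50% inhibition of growth. TGI is the concentration that stops growth completely.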

Tests used:
Assay in all cases: NCI-60 cell line screen, 48 h
SW-620 colon = tested on: SW-620 colon
PC-3 prostate = tested on: PC-3 prostate
IGROV1 ovarian = tested on: IGROV1 ovarian
SK-OV-3 ovarian = tested on: SK-OV-3 ovarian
SNB-19 CNS = tested on: SNB-19 CNS
NCI-H226 lung = tested on: NCI-H226 lung
HL-60(TB) leukemia = tested on: HL-60(TB) leukemia
HCC-2998 colon = tested on: HCC-2998 colon
OVCAR-3 ovarian = tested on: OVCAR-3 ovarian
ACHN renal = tested on: ACHN renal

Row | Structure (SMILES) | GI50 (SW-620 colon) | TGI (SW-620 colon) | GI50 (PC-3 prostate) | TGI (PC-3 prostate) | GI50 (IGROV1 ovarian) | TGI (IGROV1 ovarian) | GI50 (SK-OV-3 ovarian) | TGI (SK-OV-3 ovarian) | GI50 (SNB-19 CNS) | TGI (SNB-19 CNS) | GI50 (NCI-H226 lung) | TGI (NCI-H226 lung) | GI50 (HL-60(TB) leukemia) | TGI (HL-60(TB) leukemia) | GI50 (HCC-2998 colon) | TGI (HCC-2998 colon) | GI50 (OVCAR-3 ovarian) | TGI (OVCAR-3 ovarian) | GI50 (ACHN renal) | TGI (ACHN renal)
1 | CC(C)=Cc1cccc2[nH]c(O)c(N=Nc3ccc(S(N)(=O)=O)cc3)c12 | 1.14 µM | > 25 µM | 6.2 µM | > 25 µM | > 25 µM | > 25 µM | 14.5 µM | > 25 µM | > 14.6 µM | > 25 µM | > 6.16 µM | > 25 µM | 3.37 µM | > 25 µM | > 25 µM | > 25 µM | 11.5 µM | > 25 µM | 2.09 µM | > 25 µM
2 | CCN(CCO)CCCC(C)Nc1ccnc2cc(Cl)ccc12 (stereo not drawn) | > 100 µM | > 100 µM | > 100 µM | > 100 µM | > 100 µM | > 100 µM | > 100 µM | > 100 µM | > 100 µM | > 100 µM | > 100 µM | > 100 µM | 13.3 µM | 47.6 µM | – | – | > 100 µM | > 100 µM | > 100 µM | > 100 µM
3 | COc1cc2c(c(OC)c1OC)-c1c(c3ccc([N+](=O)[O-])cc3c(=O)n1CCCBr)C2=O | 18.2 µM | > 100 µM | 26.3 µM | > 100 µM | – | – | > 100 µM | > 100 µM | 57.4 µM | > 100 µM | 13.5 µM | 68.5 µM | – | – | 50.4 µM | > 100 µM | > 100 µM | > 100 µM | – | –
4 | CN[C@@H](Cc1cccc2ccccc12)C(=O)N[C@@H](CC(C)C)B(O)O | 0.012 µM | 0.026 µM | 0.0391 µM | 0.154 µM and 0.031 µM | 0.0187 µM | 0.0554 µM and 0.0681 µM | 0.0944 µM | > 100 µM | 0.0356 µM | – | – | 0.00722 µM | – | – | 0.0162 µM | 0.0298 µM | 0.0158 µM | 0.037 µM and < 0.0147 µM | – | > 100 µM
5 | O=[N+]([O-])c1ccc(N=Nc2c(Cl)cc(O)cc2Cl)cc1 | 1.6 µM | 10.3 µM | 2.72 µM | 15.4 µM | – | – | 2.1 µM | 10.3 µM | 1.94 µM | 15.7 µM | 2.83 µM | 11.3 µM | 0.382 µM | 2.86 µM | 3.15 µM | 10.8 µM | 0.462 µM | 2.47 µM | 1.01 µM | 11.6 µM
6 | Cc1ccc2[nH]c(O)c(N=Nc3ccccc3[N+](=O)[O-])c2c1 | – | > 100 µM | – | > 100 µM | – | 20 µM | – | 14.2 µM | – | > 81.1 µM | – | 47.5 µM | – | > 100 µM | – | > 100 µM | – | 99.6 µM | – | –
7 | CN(/N=C/c1ccccc1O)c1ccc2ccccc2n1 | – | > 100 µM | – | 34.3 µM | – | 42.5 µM | – | 29.8 µM | – | 30.3 µM | – | > 100 µM | – | > 100 µM | – | – | – | 34.7 µM | – | 66.6 µM
8 | COc1ccc2c(c1)C(=O)c1c-2c(N2CCN(C(=O)CCNCCNCCN)CC2)nc2ccccc12 | 1.86 µM | 3.65 µM | 10.3 µM | 25.9 µM | 5.89 µM | 32.7 µM | 14.6 µM | 30.6 µM | 15 µM | 39.8 µM | 22.6 µM | 78.4 µM | 3.03 µM | 6.83 µM | – | – | 16.8 µM | 61.2 µM | – | –
9 | O=C(c1ccccc1)C1OC1C(=O)c1ccccc1 (stereo not drawn) | 3.11 µM | 16.1 µM | 4.72 µM | 25.7 µM | 3.56 µM | 15 µM | 7.98 µM | > 100 µM | 14.1 µM | > 100 µM | 5.24 µM | > 100 µM | – | – | 2.94 µM | 10.3 µM | 1.77 µM | 6.7 µM | 3.67 µM | 15.7 µM
10 | C/C(CC(C)(C)N1CC1)=N\NC(=O)Nc1cccc2ccccc12 | 2.89 µM | 12.4 µM | 5.32 µM | 23.2 µM | 4.19 µM | 36.9 µM | – | – | 5.14 µM | 18.1 µM | 3.51 µM | 14.9 µM | 2.04 µM | 5 µM | 4.81 µM | 17 µM | 2.32 µM | 5.92 µM | 2.99 µM | 11.8 µM
11 | O=C(c1ccc2ccccc2c1)c1c(C(F)(F)F)n([O-])c2cc(C(F)(F)F)ccc2[n+]1=O | – | – | 1.34 µM | 2.75 µM | 1.71 µM | 3.36 µM | 1.79 µM | 3.23 µM | 1.88 µM | 3.43 µM | 1.49 µM | 3.5 µM | 1.54 µM | 3.59 µM | 1.82 µM | 3.37 µM | 1.48 µM | 2.97 µM | 1.5 µM | 2.88 µM
12 | O=S(=O)(O)n1ccnc1 (tested in a mixture with another compound) | – | > 100 µM | – | > 100 µM | – | > 100 µM | – | > 100 µM | – | > 100 µM | – | > 100 µM | – | > 100 µM | – | – | – | > 100 µM | – | > 100 µM
13 | CCN(CC)CCn1c(=O)c2cc(OC)c(OC)cc2c2ccc3cc4c(cc3c21)OCO4 | 0.692 µM | 23.2 µM | 0.799 µM | 99.7 µM | 0.491 µM | 21.4 µM | – | – | 0.367 µM | 27.2 µM | 0.446 µM | > 50.6 µM | 0.721 µM | 3.16 µM | 2.57 µM | 25.7 µM | 7.57 µM | 25.5 µM | 0.266 µM | 12 µM
14 | CCOC(=O)c1c(-c2ccc(OC)c(O)c2)c(C#N)c(=S)n(C2OC(COC(C)=O)C(OC(C)=O)C(OC(C)=O)C2OC(C)=O)c1-c1ccccc1 (stereo not drawn) | – | > 100 µM | 25 µM and > 100 µM | 66.5 µM and > 100 µM | 23.6 µM and > 100 µM | 47.7 µM and > 100 µM | – | – | – | > 100 µM | – | > 100 µM | 43.5 µM and > 100 µM | > 100 µM | 31.8 µM and > 100 µM | > 100 µM | 20.9 µM and > 100 µM | 45.2 µM and > 100 µM | 36.6 µM and > 100 µM | > 100 µM
15 | O=C(CCCC(=O)N/N=C/c1cc(Cl)ccc1O)N/N=C\c1cc(Cl)ccc1O | 3.69 µM | > 100 µM | 2.68 µM | > 100 µM | 4.21 µM | > 100 µM | 5.95 µM | > 100 µM | 4.42 µM | > 100 µM | 6.64 µM | 65.7 µM | 2.48 µM | 8.28 µM | – | – | 0.847 µM | > 100 µM | 1.58 µM | > 100 µM
